Where a chain is given by its changes, count along the chain named. Where a SMILES comes first, the peptide text is derived from it. Where no end group is shown, it is not given here.
Legend:
HLA-DPB1*0201 = biological target: T1, HLA-DPB1*0201 (Homo sapiens, UniProt P04440+P20036, A65V/A84D/A85E/K98E); experiment: biochemical; type: binding
T1 sequence (P04440 30-258 A65V/A84D/A85E/K98E): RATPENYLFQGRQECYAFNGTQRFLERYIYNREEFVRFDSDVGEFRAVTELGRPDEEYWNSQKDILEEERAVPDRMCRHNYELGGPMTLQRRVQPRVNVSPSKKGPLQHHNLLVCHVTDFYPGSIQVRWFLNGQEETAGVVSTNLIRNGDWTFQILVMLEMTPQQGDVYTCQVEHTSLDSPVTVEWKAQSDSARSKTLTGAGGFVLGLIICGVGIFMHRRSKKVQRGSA
T1 sequence (P20036 29-260): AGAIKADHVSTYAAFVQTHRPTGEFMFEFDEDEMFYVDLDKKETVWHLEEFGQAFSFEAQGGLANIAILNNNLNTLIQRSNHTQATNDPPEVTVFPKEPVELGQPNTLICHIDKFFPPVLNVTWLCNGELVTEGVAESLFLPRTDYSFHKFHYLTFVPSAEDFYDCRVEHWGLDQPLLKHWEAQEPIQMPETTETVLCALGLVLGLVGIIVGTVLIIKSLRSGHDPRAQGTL

HLA-DPB1*0402 = biological target: T2, HLA-DPB1*0402 (Homo sapiens, UniProt P04440+P20036, A65V/A84D/A85E/L207M); experiment: biochemical; type: binding
T2 sequence (P04440 30-258 A65V/A84D/A85E): T1 sequence (P04440 30-258 A65V/A84D/A85E/K98E) with E69K
T2 sequence (P20036 29-260): T1 sequence (P20036 29-260)

Compound | IC50 (HLA-DPB1*0201) | IC50 (HLA-DPB1*0402)
LTGYSLFQKEKMVLN | 0.18 µM | –
CC[C@H](C)[C@H](NC(=O)[C@@H](N)CCCCN)C(=O)N[C@@H](Cc1ccccc1)C(=O)NCC(=O)N[C@@H](CO)C(=O)N[C@@H](CC(C)C)C(=O)N[C@@H](C)C(=O)N[C@@H](Cc1ccccc1)C(=O)N[C@@H](CC(C)C)C(=O)N1CCC[C@H]1C(=O)N[C@@H](CCC(=O)O)C(=O)N[C@@H](CO)C(=O)N[C@@H](Cc1ccccc1)C(=O)N[C@@H](CC(=O)O)C(=O)NCC(=O)N[C@@H](CC(=O)O)C(=O)N1CCC[C@H]1C(=O)N[C@@H](C)C(=O)O | 0.009 µM | 0.143 µM
INEPTAAAIAYGLDR | 4.15 µM | 11.6 µM
CC[C@H](C)[C@H](NC(=O)[C@H](CS)NC(=O)[C@@H]1CCCN1C(=O)[C@H](CCC(=O)O)NC(=O)[C@H](CO)NC(=O)CNC(=O)[C@@H](N)Cc1c[nH]cn1)C(=O)N[C@H](C(=O)N[C@@H](Cc1c[nH]cn1)C(=O)N[C@@H](CCCNC(=N)N)C(=O)NCC(=O)N[C@@H](CCCCN)C(=O)N1CCC[C@H]1C(=O)N[C@@H](Cc1ccccc1)C(=O)N[C@@H](CCC(N)=O)C(=O)N[C@@H](CC(C)C)C(=O)N[C@@H](CCC(=O)O)C(=O)N[C@@H](C)C(=O)N[C@H](C(=O)O)C(C)C)[C@@H](C)CC | 0.82 µM | 1.41 µM
DVKFPGGGQIVGGVYLLPRR | – | 0.033 µM
RELWWVFYAAD | 0.291 µM | –
RSQPGLCNMYKDSHHPARTA | 4.59 µM | 7.78 µM
CC[C@H](C)[C@H](NC(=O)[C@H](Cc1ccc(O)cc1)NC(=O)[C@H](CCC(=O)O)NC(=O)[C@H](Cc1ccccc1)NC(=O)[C@H](C)NC(=O)[C@H](CCC(N)=O)NC(=O)[C@H](CO)NC(=O)[C@@H]1CCCN1C(=O)[C@@H](N)CC(C)C)C(=O)N[C@@H](CC(C)C)C(=O)N[C@@H](Cc1ccc(O)cc1)C(=O)N[C@@H](CC(N)=O)C(=O)N[C@@H](CCCCN)C(=O)NCC(=O)O | 0.001 µM | 0.0096 µM
CC[C@H](C)[C@H](NC(=O)[C@H](C)NC(=O)[C@H](CC(=O)O)NC(=O)[C@H](CCCCN)NC(=O)[C@H](CC(C)C)NC(=O)[C@@H](NC(=O)[C@H](CCC(=O)O)NC(=O)[C@H](C)NC(=O)[C@H](Cc1ccccc1)NC(=O)[C@@H](NC(=O)[C@H](Cc1c[nH]cn1)NC(=O)[C@@H](NC(=O)[C@H](CCC(N)=O)NC(=O)[C@H](CC(C)C)NC(=O)[C@H](Cc1ccccc1)NC(=O)[C@@H](N)C(C)C)[C@@H](C)O)[C@@H](C)CC)C(C)C)C(=O)N[C@@H](CCCCN)C(=O)N[C@@H](CC(=O)O)C(=O)N[C@@H](CC(C)C)C(=O)O | 0.032 µM | 0.0056 µM
CC[C@H](C)[C@H](NC(=O)[C@H](C)NC(=O)[C@H](CS)NC(=O)[C@H](C)NC(=O)[C@H](CC(C)C)NC(=O)[C@@H](NC(=O)CNC(=O)[C@H](CC(=O)O)NC(=O)[C@H](CC(=O)O)NC(=O)CNC(=O)[C@@H](N)CCSC)C(C)C)C(=O)N[C@@H](C)C(=O)N[C@H](C(=O)N[C@@H](Cc1c[nH]cn1)C(=O)N[C@@H](C)C(=O)N[C@@H](CCCCN)C(=O)N[C@H](C(=O)N[C@@H](CCCNC(=N)N)C(=O)N[C@@H](CC(=O)O)C(=O)O)[C@@H](C)CC)[C@@H](C)O | 8.79 µM | –
DTLRSYYADWYQQKPG | 0.188 µM | 1.55 µM
CC[C@H](C)[C@H](NC(=O)[C@H](CC(=O)O)NC(=O)[C@H](CC(=O)O)NC(=O)[C@H](Cc1ccccc1)NC(=O)[C@H](C)NC(=O)[C@H](CCCCN)NC(=O)[C@H](CCC(N)=O)NC(=O)[C@@H](NC(=O)[C@H](CCCCN)NC(=O)[C@@H](N)CCC(=O)O)[C@@H](C)CC)C(=O)N[C@@H](C)C(=O)N[C@@H](CCCCN)C(=O)N[C@@H](Cc1ccc(O)cc1)C(=O)N[C@@H](Cc1ccccc1)C(=O)N[C@@H](CO)C(=O)N[C@@H](CCCCN)C(=O)O | 0.075 µM | 0.506 µM
CDGERPTLAFLQDVM | 32.8 µM | 15.2 µM
EEVDMTPADALDDFD | 5.8 µM | 26 µM
TPTEKDEYCARVNH | – | 14 µM
CC[C@H](C)[C@H](NC(=O)[C@H](CC(=O)O)NC(=O)[C@@H](N)CCCCN)C(=O)N[C@@H](CC(C)C)C(=O)N[C@@H](CCC(=O)O)C(=O)N[C@@H](CC(=O)O)C(=O)N[C@@H](CCC(=O)O)C(=O)N[C@@H](CCCNC(=N)N)C(=O)N[C@@H](C)C(=O)N[C@@H](C)C(=O)N[C@H](C(=O)N[C@@H](CC(=O)O)C(=O)N[C@H](C(=O)N[C@@H](Cc1ccc(O)cc1)C(=O)N[C@@H](CS)C(=O)O)[C@@H](C)O)C(C)C | 10.5 µM | 4.2 µM
CC[C@H](C)[C@H](NC(=O)[C@H](Cc1c[nH]c2ccccc12)NC(=O)[C@H](CCSC)NC(=O)[C@H](CC(C)C)NC(=O)[C@H](CC(C)C)NC(=O)[C@@H](N)CO)C(=O)N[C@H](C(=O)N[C@@H](CCC(N)=O)C(=O)N[C@@H](CS)C(=O)N[C@@H](Cc1ccccc1)C(=O)N[C@@H](CC(C)C)C(=O)N1CCC[C@H]1C(=O)N[C@H](C(=O)O)C(C)C)[C@@H](C)O | 0.0013 µM | 0.0061 µM
DKKETVWHLE | 0.093 µM | 3.74 µM
CC[C@H](C)[C@H](NC(=O)[C@H](CO)NC(=O)[C@H](Cc1ccc(O)cc1)NC(=O)[C@H](C)NC(=O)[C@H](CS)NC(=O)[C@H](CC(C)C)NC(=O)[C@H](CC(C)C)NC(=O)[C@H](CS)NC(=O)[C@@H](N)CC(=O)O)C(=O)N[C@@H](CCC(=O)O)C(=O)N[C@@H](Cc1ccccc1)C(=O)NCC(=O)N[C@H](C(=O)N[C@@H](CC(N)=O)C(=O)N[C@H](C(=O)N[C@@H](CO)C(=O)N[C@@H](CCCCN)C(=O)N[C@@H](CCC(=O)O)C(=O)N[C@@H](Cc1c[nH]cn1)C(=O)N[C@@H](CC(=O)O)C(=O)O)[C@@H](C)CC)[C@@H](C)O (H-DCLLCAYSIEFGTNISKEHD-OH) | 0.343 µM | 0.232 µM
SDVGEFRAVTELG | 0.619 µM | 4.05 µM
CC[C@H](C)[C@H](NC(=O)[C@H](CO)NC(=O)[C@H](CCC(=O)O)NC(=O)[C@H](C)NC(=O)[C@H](CCC(=O)O)NC(=O)[C@H](CCSC)NC(=O)[C@H](CCC(N)=O)NC(=O)[C@H](CCCCN)NC(=O)[C@@H](NC(=O)[C@H](CC(=O)O)NC(=O)[C@H](CCC(=O)O)NC(=O)[C@H](CCSC)NC(=O)[C@H](C)NC(=O)[C@H](CCC(N)=O)NC(=O)[C@H](CC(=O)O)NC(=O)[C@H](CCC(=O)O)NC(=O)[C@@H](N)[C@@H](C)O)[C@@H](C)CC)C(=O)N[C@@H](CO)C(=O)O | 4.77 µM | 2.47 µM
CC[C@H](C)[C@H](NC(=O)[C@H](CCC(N)=O)NC(=O)[C@H](CS)NC(=O)[C@H](Cc1ccc(O)cc1)NC(=O)[C@H](CC(N)=O)NC(=O)[C@H](CO)NC(=O)[C@@H](NC(=O)CNC(=O)[C@H](Cc1ccccc1)NC(=O)[C@H](CCCNC(=N)N)NC(=O)[C@H](CCC(N)=O)NC(=O)[C@H](C)NC(=O)[C@@H](N)CC(N)=O)[C@@H](C)CC)C(=O)O | 0.0078 µM | 0.365 µM
FFLLTRILTIPQSLD | 0.0003 µM | 0.0012 µM
CC[C@H](C)[C@H](NC(=O)[C@@H](N)Cc1c[nH]c2ccccc12)C(=O)N[C@H](C(=O)N[C@@H](CCC(N)=O)C(=O)N[C@@H](CS)C(=O)N[C@@H](Cc1ccccc1)C(=O)N[C@@H](CC(C)C)C(=O)N1CCC[C@H]1C(=O)N[C@H](C(=O)N[C@@H](Cc1ccccc1)C(=O)N[C@@H](CC(C)C)C(=O)N[C@@H](C)C(=O)N[C@@H](CCC(N)=O)C(=O)N1CCC[C@H]1C(=O)N1CCC[C@H]1C(=O)N[C@@H](CO)C(=O)NCC(=O)N[C@@H](CCC(N)=O)C(=O)N[C@@H](CCCNC(=N)N)C(=O)N[C@@H](CCCNC(=N)N)C(=O)O)C(C)C)[C@@H](C)O | – | 0.025 µM
FDRSTKVIDFHYPNE | – | 30.4 µM
CC(C)C[C@H](NC(=O)[C@@H](NC(=O)[C@H](CC(N)=O)NC(=O)[C@H](Cc1ccccc1)NC(=O)[C@H](CC(C)C)NC(=O)[C@H](CO)NC(=O)[C@H](Cc1c[nH]c2ccccc12)NC(=O)[C@@H](NC(=O)[C@@H](NC(=O)[C@H](Cc1c[nH]cn1)NC(=O)[C@H](CC(=O)O)NC(=O)[C@@H]1CCCN1C(=O)[C@@H](N)C(C)C)C(C)C)C(C)C)[C@@H](C)O)C(=O)O | 0.0011 µM | 0.0084 µM
CC(C)C[C@H](NC(=O)[C@H](CO)NC(=O)[C@H](CCC(N)=O)NC(=O)[C@@H](N)CC(C)C)C(=O)N[C@H](C(=O)N[C@@H](CO)C(=O)N[C@@H](CCC(N)=O)C(=O)N[C@@H](Cc1ccc(O)cc1)C(=O)N[C@@H](Cc1ccccc1)C(=O)N[C@@H](CCC(N)=O)C(=O)N[C@H](C(=O)N[C@H](C(=O)N[C@@H](C)C(=O)N[C@@H](CC(=O)O)C(=O)N[C@@H](Cc1ccc(O)cc1)C(=O)O)C(C)C)[C@@H](C)O)C(C)C | 0.0027 µM | –
NNKYAASSYLSLTPE | 0.0024 µM | 0.042 µM
CSCC[C@H](NC(=O)[C@H](CCCNC(=N)N)NC(=O)[C@H](CCSC)NC(=O)[C@H](CCCCN)NC(=O)[C@H](CO)NC(=O)[C@@H](NC(=O)[C@@H]1CCCN1C(=O)[C@@H](N)CCCCN)C(C)C)C(=O)N[C@@H](C)C(=O)N[C@H](C(=O)N1CCC[C@H]1C(=O)N[C@@H](CC(C)C)C(=O)N[C@@H](CC(C)C)C(=O)N[C@@H](CCSC)C(=O)N[C@@H](CCC(N)=O)C(=O)N[C@@H](C)C(=O)N[C@@H](CC(C)C)C(=O)N1CCC[C@H]1C(=O)O)[C@@H](C)O | 0.161 µM | 0.138 µM
